Measured values published in ChEMBL document CHEMBL1150523, “Synthesis of 1-(2-Deoxy-2-C-fluoromethyl--D-arabinofuranosyl)cytosine as a potential antineoplastic agent” (Bioorg Med Chem Lett, 1994).
In brackets after ≈: the same amount, converted by molar mass.

Columns and labels:
Assay type in all cases: functional, cell-based
A-375 = test: Inhibitory concentration against melanoma A-375 cell line for cytotoxicity was determined; details: Homo sapiens
CCRF-HSB-2 = test: Inhibitory concentration against human T-cell line CCRF-HSB-2 for cytotoxicity was determined
COLO 320DM = test: Inhibitory concentration against colon adenocarcinoma COLO 320DM cell line for cytotoxicity was determined; details: Homo sapiens
[1] = test system: KATO III stomach cancer cell line; test: Inhibitory concentration against stomach adenocarcinoma KATO-III cell line for cytotoxicity was determined; details: Homo sapiens
KB = test: Inhibitory concentration against solid tumor KB cell line for cytotoxicity was determined; details: Homo sapiens
PC-8 = test: Inhibitory concentration against lung adenocarcinoma PC-8 cell line for cytotoxicity was determined; details: Homo sapiens

## Nc1ccn([C@@H]2O[C@H](CO)C(O)C2CF)c(=O)n1 (single isomer, unassigned)
A-375
  IC50: 1.6 µg/mL (≈ 6.17 µM)
CCRF-HSB-2
  IC50: 0.03 µg/mL (≈ 0.116 µM)
COLO 320DM
  IC50: 1.6 µg/mL (≈ 6.17 µM)
[1]
  IC50: 11 µg/mL (≈ 42.4 µM)
KB
  IC50: 4.47 µg/mL (≈ 17.2 µM)
PC-8
  IC50: 26 µg/mL (≈ 100 µM)
